Experimental findings from patent US20030176479A1, “Use of selective EP4 receptor agonists for the treatment of liver failure, loss of patency of the ductus arteriosus, glaucoma or ocular hypertension” (priority 2002, published 2003) are described below.

For the experiment, the target named is T1, rat EP4 receptor (Rattus norvegicus, UniProt P43114).
T1 construct: expressed in transfected cells
T1 sequence (P43114 whole entry): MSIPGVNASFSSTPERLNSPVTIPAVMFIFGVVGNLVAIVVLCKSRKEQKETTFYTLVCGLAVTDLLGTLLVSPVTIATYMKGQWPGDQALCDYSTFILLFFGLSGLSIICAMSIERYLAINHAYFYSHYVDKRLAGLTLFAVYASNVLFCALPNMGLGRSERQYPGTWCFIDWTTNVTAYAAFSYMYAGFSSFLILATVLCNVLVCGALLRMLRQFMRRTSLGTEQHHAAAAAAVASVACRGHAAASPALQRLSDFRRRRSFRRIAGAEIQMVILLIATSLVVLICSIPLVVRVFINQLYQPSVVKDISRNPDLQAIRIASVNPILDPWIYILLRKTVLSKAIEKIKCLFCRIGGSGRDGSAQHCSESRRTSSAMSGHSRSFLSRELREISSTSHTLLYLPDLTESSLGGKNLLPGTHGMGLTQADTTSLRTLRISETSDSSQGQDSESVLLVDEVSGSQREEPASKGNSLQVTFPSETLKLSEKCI
Description: Cyclic AMP elevation in 293S cell lines stably overexpressing recombinant rat EP4 receptors. The format is cell-based. The conditions noted are these: 293S cells expressing rat EP4, 1 mM IBMX, 12 minutes at 37° C.; read-out: EC50 in the cAMP (rat EP4) elevation assay. The source says:
Determination of Cyclic AMP Elevation in 293S Cell Lines Stably Overexpressing Recombinant Rat EP4 Receptors Assay
cDNA representing the complete open reading frame of the rat EP4 receptor is generated by reverse transcriptase polymerase chain reaction using oligonucleotide primers based on published sequences. The full length coding sequence for the rat EP4 receptor is made in accordance with the procedure in Sando et al., Biochem. Biophys. Res. Comm. 1994, 200, 1329-1333, and RNA from rat kidney (EP4) as templates. 293S cells are transfected with the cloned rat EP4 receptor in pcDNA3 by lipid mediated transfection. Stable cell lines expressing the rat EP4 receptor are established following selection of transfected cells with Geneticin® (Invitrogen Corporation, Carlsbad, Calif.).
Clonal cell lines expressing the maximal number of receptors are chosen following a whole cell ^3H-PGE2 binding assay using unlabeled PGE2 as a competitor. […] Constitutive expression of the receptor in parental 293-S cells is negligible. A stable cell line containing the rat EP4 receptor is grown in Dulbecco's Mosified Eagle Medium/F12 (DMEM/F12) containing 10% fetal bovine serum and G418 (500 μg/ml) to 80% confluency.
cAMP responses in the 293-S/EP4 lines are determined by detaching cells from culture flasks in 1 ml of calcium (Ca++) and magnesium (Mg++) deficient phosphate buffered saline (PBS) via vigorous pounding and then rinsing the cells with calcium (Ca++) and magnesium (Mg++) deficient phosphate buffered saline (PBS). The cells are resuspended in MEM (Minimum Essential Medium), 1% BSA (bovine serum albumin), 50 mM HEPES (N-[2-Hydroxyethyl]piperazine-N′-[2-ethanesulfonic acid]) at 37° C. The cell suspension is counted on a hemacytometer and diluted by adding MEM (Minimum Essential Medium) to a final concentration of 1×10^6 cells/ml, and adding 3-isobutyl-1-methylxanthine (IBMX) to a final concentration of 1 mM. 200 microliters of cell suspension is immediately aliquoted into individual tubes and incubated for 10 minutes, uncovered, at 37° C., 5% CO2, 95% relative humidity. The compound of Formula I or II to be tested in either dimethylsulfoxide (DMSO) or ethanol is then added to cells at 1:100 dilutions such that the final DMSO or ethanol concentration is 1%. Typically, the cells are treated with 6-8 different concentrations (in 1 log increments, such as those described below) of the compound of Formula I or II. Typical concentrations of the compound of Formula I or II in this assay are between 10^−5M to 10^−10M. For example, a six point compound dose response assay tests the compound of Formula I or II at concentrations of 10^−5M, 10^−6M, 10^−7M, 10^−8M, 10^−9M and 10^—10M. Immediately after adding the test compound, the tubes are covered, mixed by inverting two times, and incubated at 37° C. for 12 minutes. Samples are then lysed by incubation at 100° C. for 10 minutes and immediately cooled on ice for 5 minutes to approximately 4° C. Cellular debris is pelleted by centrifugation at 3500×g for 5 minutes at approximately 4° C., and cleared lysates are transferred to fresh tubes. cAMP concentrations are determined using a commercially available ^125I-cAMP radioimmunoassay (RIA) kit (NEK-033, Perkin-Elmer Life Sciences, Inc., Boston, Mass.). The cleared lysates are diluted 1:100 in cAMP RIA assay buffer (included in kit) and centrifuged again. 50 microliters of the resulting supernatant is transferred to a 12×75 mm glass tube and data is collected by scintillation counting using a Wallac Cobra II Gamma Counter (Perkin-Elmer Wallac, Inc., Gaithersburg, Md.). EC50 calculations are performed on a calculator using linear regression analysis on the linear portion of the dose response curves or using Data Fitter.
One may read the EC50 as the concentration giving half of the maximal effect. As for `O=C1CCC(CCC(O)Cc2cccc(-c3ccccc3)c2)N1CCCCCCc1nn[nH]n1` (stereo not drawn) [Example 6, 5-(4-Biphenyl-3-yl-3-hydroxy-butyl)-1-[6-(2H-tetrazol-5-yl)-hexyl]-pyrrolidin-2-one], the concentration for a half-maximal effect (EC50) is 175 nM. As for `O=C(O)CCCCCCN1C(=O)CC[C@@H]1CC[C@@H](O)Cc1cccc(C(F)(F)F)c1` [Example 2, 7-{2S-[3R-hydroxy-4-(3-trifluoromethyl-phenyl)-butyl]-5-oxo-pyrrolidin-1-yl}-heptanoic acid], the concentration for a half-maximal effect (EC50) stood at 13.2 nM. Turning to `O=C1CC[C@H](CCC(O)Cc2cccc(Cl)c2)N1CCCCCCc1nn[nH]n1` (stereo partly drawn) [Example 3, 5S-[4-(3-Chloro-phenyl)-3-hydroxy-butyl]-1-[6-(2H-tetrazol-5-yl)-hexyl]-pyrrolidin-2-one], the EC50 turned out to be 33.1 nM. Regarding `O=C(O)CCCCCCN1C(=O)CCC1CCC(O)Cc1ccccc1` (stereo not drawn) [Example 9, 7-(2-(3-hydroxy-4-phenyl-butyl)-5-oxo-pyrrolidin-1-yl)-heptanoic acid], the concentration for a half-maximal effect (EC50) is 32.5 nM. Consider `O=C(O)CCCCCCN1C(=O)CC[C@@H]1CC[C@@H](O)Cc1cccc(Cl)c1` [Example 1, 7-{2S-[4-(3-Chloro-phenyl)-3R-hydroxy-butyl]-5-oxo-pyrrolidin-1-yl}-heptanoic acid], for which the EC50 turned out to be 8.8 nM. Under `O=C1CC[C@H](CC[C@@H](O)Cc2cccc(C(F)(F)F)c2)N1CCCCCCc1nn[nH]n1` [Example 4, 5S-[3R-Hydroxy-4-(3-trifluoromethyl-phenyl)-butyl]-1-[6-(2H-tetrazol-5-yl)-hexyl]-pyrrolidin-2-one] stands 70.2 nM.
